This note sets out measurements from publication PMC10803289, “Transport and inhibition mechanism of the human SGLT2–MAP17 glucose transporter” (Nature Structural & Molecular Biology, 2023).

Substitutions are numbered along the chain they refer to. Several values for one entry are separate records, joined by “and”; a condition that tells them apart may be missing. Equal entries are not always repeated.

One experiment concerns the target T1, hSGLT2 D201A (Homo sapiens, UniProt P31639, D201A).
T1 sequence (P31639 1-672 D201A): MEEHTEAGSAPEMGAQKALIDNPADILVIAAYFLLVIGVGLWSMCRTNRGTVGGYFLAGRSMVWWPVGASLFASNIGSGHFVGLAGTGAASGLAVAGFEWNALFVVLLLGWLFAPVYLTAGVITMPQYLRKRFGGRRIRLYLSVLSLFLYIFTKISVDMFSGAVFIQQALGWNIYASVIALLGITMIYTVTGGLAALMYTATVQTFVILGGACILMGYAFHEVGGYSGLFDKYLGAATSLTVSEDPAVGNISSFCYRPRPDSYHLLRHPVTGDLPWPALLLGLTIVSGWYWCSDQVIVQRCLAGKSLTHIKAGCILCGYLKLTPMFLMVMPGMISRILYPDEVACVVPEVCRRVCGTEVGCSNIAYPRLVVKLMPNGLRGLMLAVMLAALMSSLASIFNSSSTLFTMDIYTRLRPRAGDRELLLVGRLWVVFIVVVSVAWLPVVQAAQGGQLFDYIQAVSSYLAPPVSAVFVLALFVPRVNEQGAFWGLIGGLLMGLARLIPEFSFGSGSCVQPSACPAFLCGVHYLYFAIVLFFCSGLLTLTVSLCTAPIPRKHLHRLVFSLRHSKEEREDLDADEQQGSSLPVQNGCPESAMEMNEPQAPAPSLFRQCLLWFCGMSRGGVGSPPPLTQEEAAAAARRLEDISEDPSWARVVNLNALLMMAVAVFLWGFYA
T1 sequence (Q13113 1-114 partner): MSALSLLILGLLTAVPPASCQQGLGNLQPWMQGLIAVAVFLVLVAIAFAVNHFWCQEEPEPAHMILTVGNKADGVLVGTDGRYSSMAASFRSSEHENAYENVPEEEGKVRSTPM
As to the kind of experiment: SGLT2 inhibitor-binding assay (AS-MS), crude membrane, D201A mutant. More on the design: expressed in transfected cells; host or cells: Expi293 cells, crude membrane fraction. Particulars: 30 nM canagliflozin; D201A; replicates. From the text:
(§1) hSGLT2 complementary DNA and human MAP17 cDNA were synthesized and codon-optimized for expression in human cell lines. Both cDNAs were cloned into the pcDNA3.4 vector. The hSGLT2 sequence was fused with an N-terminal signal sequence from human trypsinogen 1, a His10 tag, and sfGFP, followed by a human rhinovirus 3C protease (HRV3C protease) recognition site. Point mutations were introduced into this construct using site-directed mutagenesis. These plasmids were utilized for all experimental procedures conducted in this study.
(§2) To examine the inhibition of binding to the crude membrane, mammalian Expi293 cells were co-transfected with the hMAP17 and hSGLT2 plasmids, as described. […] The extract solution from the filter plate was diluted with water containing candesartan as an internal standard, and the SGLT2 inhibitor concentration was quantified via LC–MS/MS.
(§3) Nonspecific binding was measured using the crude membrane of nontransfected Expi293 cells. Specific binding was calculated by subtracting nonspecific binding from the binding of hSGLT2-expressing cells. Specific binding was normalized to hSGLT2 protein expression levels, measured via FSEC. The equilibrium dissociation constant (Kd) and maximum number of binding sites (Bmax) were calculated via nonlinear regression in GraphPad Prism 8.4.3. […]

The target of a further experiment is T2, hSGLT2 F98A (Homo sapiens, UniProt P31639, F98A).
T2 sequence (P31639 1-672 F98A): T1 sequence (P31639 1-672 D201A) with F98A, A201D
T2 sequence (Q13113 1-114 partner): T1 sequence (Q13113 1-114 partner)
Description: SGLT2 inhibitor-binding assay (AS-MS), crude membrane, F98A mutant. More on the design: expressed in transfected cells; host or cells: Expi293 cells, crude membrane fraction. Particulars: 30 nM canagliflozin, replicates.
Text: as §1, §2, §3

For `Cc1ccc([C@@H]2O[C@H](CO)[C@@H](O)[C@H](O)[C@H]2O)cc1Cc1ccc(-c2ccc(F)cc2)s1` [Canagliflozin], the “Canagliflozin binding (% of WT)” value was 127.94 % of WT and 124.539 % of WT and 148.349 % of WT on hSGLT2 D201A; -6.142 % of WT and -5.964 % of WT and -3.041 % of WT on hSGLT2 F98A.
